# Measured values published in US9606124B2, “Methods of detecting and treating stem-cell containing solid tumors” (The Regents of The University of Michigan, priority 2008, dated 2017).
# Entries after “also recorded” stand apart in the source; their conditions may differ.
# What was measured:
# [1] = test system: ALDEFLUOR-positive population of SUM159 cell line; test: ALDEFLUOR assay on SUM159 cells in vitro (cancer stem cell population); format: cell-based, human
# Description: ALDEFLUOR Assay and Separation of the ALDH-positive Population by FACS. ALDH activity was assessed in 33 BCLs representing the main molecular subtypes of human breast cancer. The ALDEFLUOR kit (StemCell technologies, Durham, N.C., USA) was used to isolate the population with high ALDH enzymatic activity (17). Cells obtained from subconfluent cell lines after trypsinization or from freshly dissociated xenografts were suspended in ALDEFLUOR assay buffer containing ALDH substrate (BAAA, 1 μmol/l per 1×10^6 cells) and incubated for 40 minutes at 37° C. In each experiment a sample of cells was stained under identical conditions with 50 mmol/L of diethylaminobenzaldehyde (DEAB), a specific ALDH inhibitor, as negative control. Flow cytometry sorting was conducted using a FACStarPLUS (Becton Dickinson). ALDEFLUOR fluorescence was excited at 488 nm and detected using standard fluorescein isothiocyanate (FITC) 530/30 band pass filter. For xenotransplanted tumors, incubation with an anti-H2Kd antibody (BD biosciences, 1/200, 20 min on ice) followed by a secondary antibody labeled with phycoerythrin (Jackson labs, 1/250, 20 min on ice) was used to eliminate cells of mouse origin. The sorting gates were established using PI stained cells for viability, ALDEFLUOR-stained cells treated with DEAB, and those stained with secondary antibody alone. Prior to RNA profiling or NOD/SCID mice injection, the purity of sorted populations was checked using double sorting of 10,000 ALDEFLUOR-positive and negative cells in BrCa-MZ-01 and SUM159 cell lines.
# (§1) ALDEFLUOR assay. […] In order to eliminate cells of mouse origin from the xenotransplanted tumors, cell population was stained with an anti-H2Kd antibody (BD biosciences, 1/200, 20 min on ice) followed by staining with a secondary antibody labeled with phycoerythrin (PE) (Jackson labs, 1/250, 20 min on ice).
# [2] = test system: HCC1954 cells; test: MTT assay, cell viability of HCC1954 cells; format: cell-based, human; settings: repertaxin 100 nM, antibodies 10 μg/ml
# Description: (§2) Cell viability. […] Nuclei were counterstained with DAPI/antifade (Invitrogen).
# [3] = test system: ALDEFLUOR-positive population of HCC1954; test: ALDEFLUOR assay on HCC1954 cells in vitro; format: cell-based, human; settings: three days, repertaxin 100 nM, antibodies 10 μg/ml
# Description: as §1
# [4] = test system: ALDEFLUOR-positive population of MDA-MB-453; test: ALDEFLUOR assay on MDA-MB-453 cells in vitro; format: cell-based, human; settings: three days, repertaxin 100 nM, antibodies 10 μg/ml
# Description: as §1
# [5] = test system: SUM159 cells; test: TUNEL assay, apoptotic cells; format: cell-based, human; settings: 4 days of treatment
# Description: Cell viability. […] After one day, treatment with repertaxin was started. […]. […] Nuclei were counterstained with DAPI/antifade (Invitrogen).
# [6] = test system: phospho-FAK and phospho-AKT; test: Immunofluorescence staining of p-FAK and p-AKT in SUM159 cells; format: cell-based, human; settings: for phospho-FAK and phospho-AKT expression (immunofluorescence): sorted CXCR1-positive cells
# Description: The non-treated SUM159 cells presented 80% of cells positive in the cytoplasm for FOXOA3. […] The change in FOXOA3 cellular localation from the cytoplasm to the nucleus indicates an activation of FOXOA3 protein.
# (§3) Immunostaining. For immunofluorescent staining, sorted CXCR1-positive cells were fixed with 95% methanol at −20° C. for 10 minutes. Cells were rehydrated in PBS and incubated with respective antibodies at room temperature for 1 hour. Primary antibodies used were P-FAK (1:50, Cell Signaling Technology), P-AKT (1:300, Cell Signaling Technology), and FOXO3a (1:250, Cell Signaling Technology). Slides were then washed and incubated 30 minutes with PE conjugated secondary antibodies (Jackson labs). The nuclei were counterstained with DAPI/antifade (Invitrogen) and coverslipped. […] Immunohistochemistry for the detection of ALDH1 (1:100, BD biosciences), P-FAK, P-AKT, FOXO3a expression was done on paraffin section (Ginestier et al. Am. J Pathol. 161:1223-1233, herein incorporated by reference in its entirety). Staining was done utilizing the Histostainplus kit (Zymed laboratories). Diaminobenzidine (DAB) or 3-amino-9-ethylcarbazole (AEC) was used as chromogen and sections were counterstained with hematoxylin.
# [7] = test system: HCC1954 PTEN-siRNA cells; test: Repertaxin on HCC1954 PTEN-siRNA cells (western, MTT); format: cell-based, human
# Description: as §2
# Western blotting. Cells were lysed in a laemmli buffer and loaded onto SDS-polyacrylamide gels. Blots were incubated with the respective primary antibodies diluted in TBST (containing 0.1% Tween20 and 2% BSA) either overnight at 4o, or 2 hours at room temperature. Blots were washed and incubated with appropriate secondary antibodies (GE Healthcare, UK) and detected using SuperSignal West Pico Chemiluminescent Substrate (Pierce).
# Virus infection. […] All lentiviral constructs were prepared by the University of Michigan Vector. An adenoviral construct for the overexpression of FAK (Ad-FAK-GFP) was also utilized (Luo et al. Cancer Res. 69:466-474, herein incorporated by reference in its entirety). Cells infection with different vectors was performed as previously described (Charafe-Jauffret et al. Cancer Res. 69:1302-1313, herein incorporated by reference in its entirety). Efficiency of infection was verified by measuring the percentage of DsRed or GFP expressing cells.
# [8] = test system: phospho-FAK; test: Immunohistochemistry of phospho-FAK in xenotransplants; design: species or system NOD/SCID mice; settings: mouse, in vivo
# Description: as §3
# [9] = test system: HCC1954 cells; test: Metastasis formation after intracardiac injection of HCC1954 cells (bioluminescence); format: in vivo, NOD/SCID mice; settings: 250,000 cells intracardiac, repertaxin 15 mg/kg s.c. twice a day 28 days vs saline
# Description: Intracardiac inoculation. […] Twelve hours after intracardiac injections, mice were begun on twice per day repertaxin injections or saline for the controls. Bioluminescence detection. Baseline bioluminescence was assessed before inoculation and each week thereafter inoculations. Bioluminescence detection procedures was performed as previously described ([…] et al. Cancer Res. 69:1302-1313, herein incorporated by reference in its entirety). Normalized photon flux represents the ratio of the photon flux detected each week after inoculations and the photon flux detected before inoculation.
# [10] = test system: SUM159 cell line; test: MTT assay, cell growth / cell viability of SUM159 cells
# Description: After 4 days of treatment, the effect on cell growth was analyzed using the MTT assay (FIG. 5A) and on the cancer stem cell population using the ALDEFLUOR assay (FIG. 5B).
compound,measurement,setting,value
CC(C)Cc1ccc([C@@H](C)C(=O)NS(C)(=O)=O)cc1 [Repertaxin],percent of ALDEFLUOR-positive cells,"[1]; SUM159, repertaxin, repertaxin plus anti-FAS-ligand, FAS agonist",massive decrease
same,proportion of ALDEFLUOR-positive cells,"[1]; SUM159, three days, repertaxin 100 nM, antibodies 10 μg/ml",five-fold reduction; also recorded: significant reduction
same,decrease of the ALDEFLUOR-positive population,"[1]; SUM159 adherent, 4 days of treatment",80%
same,cell viability (MTT),[2],decrease in cell viability was observed after 3 days of treatment; also recorded: significant reduction
same,ALDEFLUOR-positive population,[3],significant reduction
same,ALDEFLUOR-positive population,[4],np any effect
same,apoptotic cells (TUNEL),[5],36%
same,p-FAK and p-AKT (immunofluorescence),"[6]; SUM159, 100 nM, 2 days",complete inactivation
same,phospho-FAK and phospho-AKT expression (immunofluorescence),[6],disappearance of phospho-FAK
same,phospho-FAK and phospho-AKT expression (immunofluorescence),[6]; listed as repertaxin,dramatic decrease of phospho-FAK and phospho-AKT expression
same,FAK and AKT activity in HCC1954 PTEN-siRNA cells (western blot),"[7]; 100 nM, two days",PTEN deletion blocked the effect of repertaxin treatment
same,cell viability (MTT) of HCC1954 PTEN-siRNA cells,[7]; 3 days of treatment,developed resistance to repertaxin
same,cells with membranous phospho-FAK expression in treated tumors,[8],abolished; also recorded: no expression was detected
same,metastasis formation (normalized photon flux),[9],significantly reduced metastasis formation
same,metastasis formation (normalized photon flux),[9]; listed as repertaxin,statistically significant decrease in metastasis formation
same,viability at 0.1 µM,"[10]; Homo sapiens, SUM159, 120 h, read-out: cells remaining viable / cell viability (MTT)",3%
same,"cell viability over time (one, three, five days)","[10]; SUM159, repertaxin 100 nM",loss of cell viability beginning three days after treatment; also recorded: decrease in cell viability was observed after 3 days of treatment
